“Also recorded” adds a separate entry of the source.
System: human CD34+ cells
Experiment: Expansion of CD34+ cells into MKPs in serum-free culture
Format: cell-based
Conditions: 60 ng/ml IL-9 with TPO mimetic and IL-1, 8 days, 3 donors
Source text: Isolation of human CD34^+ cells. G-CSF mobilized peripheral blood was harvested from healthy donors via leukapheresis (see, e.g., Kawamoto et al. (2009) Stem Cells 27:2857). CD34+ cells were positively selected using magnetic beads (Dynal, Lake Success, N.Y.) linked to anti-CD34 monoclonal antibody on an Isolex Device (Baxter, Deerfield, Ill.). […] Aliquots of 15-20×10^6 cells/ml were cryopreserved until use.
Expansion of CD34^+ cells. CD34^+ cells from donors were thawed, pooled as indicated, and seeded at 5×10^5 cells/ml in serum-free X-vivo 15 medium (Lonza, Walkersville, Md.) supplemented with IX GlutaMAX (Invitrogen, Carlsbad, Calif.). Cytokines were added as follows. […] Cultures were incubated at 37° C. in a humidified atmosphere containing 5% carbon dioxide. Viable cells were counted daily and cell concentration was readjusted to about 5×10^5 cells/ml by the addition of fresh medium with cytokines.
Analysis of MKPs. Cell surface marker expression was analyzed by flow cytometry using CD15b, CD33, CD34, CD41, CD42a, CD90, and CD184 antibodies. Prior to antibody staining, cells were washed with HBSS containing 2% BSA and blocked with rat and mouse IgG (SouthernBiotech, Birmingham, AL) for 10 minutes at 4° C. […]

In the case of “IL-9: interleukin-9 cytokine, also known as megakaryoblast growth factor”, the “effect on number of MKPs” value is reported as “increased the number of MKPs from all 3 donors; also recorded: increases the size of all populations”.

From patent US20140205582A1, “MEGAKARYOCYTE PROGENITOR CELLS FOR PRODUCTION OF PLATELETS” (CELLERANT THERAPEUTICS, INC., priority 2011, published 2014)
